In the supplement of paper PMC10307832:

How the values were obtained:
Test in all cases: relative viability (nuclei count vs DMSO), 5 days (fraction); higher = more cells survive
Vandetanib + Lapatinib = compound: COc1cc2/c(=N/c3ccc(Br)cc3F)nc[nH]c2cc1OCC1CCN(C)CC1 [Vandetanib] + CS(=O)(=O)CCNCc1ccc(-c2ccc3ncnc(Nc4ccc(OCc5cccc(F)c5)c(Cl)c4)c3c2)o1 [Lapatinib] (partner 2 µM)
How it was run: (§1)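 Dosing by pin tool came one day after lung cancer cell lines were seeded in 1536-well plates, using either one drug or a fixed anchor-drug dose plus five library-drug doses (not always all listed) in √10 steps. After 5 days, nuclei were counted on 4× images. Relative viability is treated-well nuclei count divided by vehicle-well nuclei count, and values are medians of duplicate plates.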

CUDC-101 + Crizotinib = compound: C#Cc1cccc(Nc2ncnc3cc(OC)c(OCCCCCCC(=O)NO)cc23)c1 [CUDC-101] + C[C@@H](Oc1cc(-c2cnn(C3CCNCC3)c2)cnc1N)c1c(Cl)ccc(F)c1Cl [Crizotinib] (partner 1 µM)
How it was run: as §1

[1] = compound: C1=CC=C2C(=C1)N=C(S2)C(C#N)C3=NC(=NC=C3)NCCC4=CN=CC=C4 + CC(=O)c1c(C)c2cnc(Nc3ccc(N4CCNCC4)cn3)nc2n(C2CCCC2)c1=O [Palbociclib] (partner 0.5 µM)
How it was run: as §1

[2] = compound: C1=CC=C2C(=C1)N=C(S2)C(C#N)C3=NC(=NC=C3)NCCC4=CN=CC=C4 + Cc1nc(Nc2ncc(C(=O)Nc3c(C)cccc3Cl)s2)cc(N2CCN(CCO)CC2)n1 [Dasatinib] (partner 0.075 µM)
How it was run: as §1

Cell Line	relative viability (Vandetanib + Lapatinib; first compound 0.02 µM)	relative viability (Vandetanib + Lapatinib; first compound 0.06325 µM)	relative viability (Vandetanib + Lapatinib; first compound 0.2 µM)	relative viability (Vandetanib + Lapatinib; first compound 0.6325 µM)	relative viability (Vandetanib + Lapatinib; first compound 2 µM)	relative viability (CUDC-101 + Crizotinib; first compound 0.01 µM)	relative viability (CUDC-101 + Crizotinib; first compound 0.03162 µM)	relative viability (CUDC-101 + Crizotinib; first compound 0.1 µM)	relative viability (CUDC-101 + Crizotinib; first compound 0.3162 µM)	relative viability (CUDC-101 + Crizotinib; first compound 1 µM)	relative viability ([1]; first compound 0.005 µM)	relative viability ([1]; first compound 0.01581 µM)	relative viability ([1]; first compound 0.05 µM)	relative viability ([1]; first compound 0.1581 µM)	relative viability ([1]; first compound 0.5 µM)	relative viability ([2]; first compound 0.005 µM)	relative viability ([2]; first compound 0.01581 µM)	relative viability ([2]; first compound 0.05 µM)	relative viability ([2]; first compound 0.1581 µM)	relative viability ([2]; first compound 0.5 µM)
H3255	0.26	0.231	0.244	0.213	0.202	0.76	0.845	0.387	0.621	0.269	0.367	0.309	0.303	0.327	0.305	0.312	0.329	0.346	0.509	0.319
LK-2	0.999	0.964	0.716	1.05	0.636	0.249	0.229	0.21	0.246	0.225	0.619	0.914	0.555	0.801	0.715	0.393	0.264	0.243	0.26	0.311
SW 1573	1.07	1.21	0.599	1.2	1.17	0.805	0.804	0.927	1.09	0.423	0.306	0.325	0.389	0.478	0.299	0.587	0.44	–	0.494	0.324
LU99A	0.973	0.869	1.01	0.828	1.04	0.516	0.585	0.458	0.45	0.256	0.398	0.41	–	0.47	0.39	0.532	0.662	0.52	0.855	0.767
NCI-H322M	0.6	0.534	0.567	0.516	0.5	0.958	0.903	0.774	0.748	0.538	0.427	0.501	0.484	0.476	0.488	0.232	0.238	0.23	0.259	0.26
COR-L23	1.08	0.906	1.03	0.96	1.01	0.677	0.674	0.626	0.555	0.295	0.236	0.312	0.229	0.281	0.24	0.427	0.516	0.499	0.581	0.489
HARA	0.676	0.558	0.588	0.773	0.764	0.904	0.866	0.89	0.799	0.395	0.298	0.235	0.229	0.257	0.365	0.355	0.281	0.246	0.235	0.372
